Source: PMC8536644, “Enigmatic mechanism of the N-vinylpyrrolidone hepatocarcinogenicity in the rat” (Archives of Toxicology, 2021)
Where “and” joins values, the source holds several entries; their conditions need not be identical. Equal values may be shown once.

Legend:
[1] = tested on: polychromatic erythrocytes of rat bone marrow; assay: Micronucleus test in rat bone marrow (OECD 474); details: for MN/ 1000 PCE Mean ± SD / MN/ 1000 PCE Range / PCE/1000 Erythrozyten Mean ± SD / PCE/NCE quotient (%): 200 mg/kg body weight oral
Method: 13-mm filter disks with a pore size of 8 µm were placed on the bottom of 5-mL plastic syringes. Approximately 500 mg of a mixture consisting of equal parts microcrystalline cellulose (Sigmacell®, Typ 50) and alpha-cellulose fibers was added up to the 2-mL mark.
Bone marrow preparation was performed according to published methods (Romagna and Staniforth [1989]; Salamone et al. [1980]). The soft tissue was removed from the femora and the epiphyses were cut off. The bone marrow was rinsed off the diaphyses with approximately 3 mL 37 °C-warm fetal calf serum (FCS) (Biochrom, Berlin, Germany) per femur, placed on the above-described cellulose column and eluted with 3 mL of Hank's Balanced Salt Solution (HBSS) (Biochrom, Berlin, Germany) (with Ca^2+ und Mg^2+). The eluate was centrifuged at 300 g for 5 min and the pellet was suspended in […] FCS. From this suspension three portions per femur were individually placed on slides, air-dried and then stained for 4 min in May-Grunwald solution 1 (Merck, Darmstadt, Germany), followed by 4 min in May–Grunwald solution 2 (May-Grunwald solution 1 diluted 1:1 with aqua bidest.), rinsed in aqua bidest and then stained with Giemsa solution (7.5% dilution derived from Giemsa obtained from Merck, Darmstadt, Germany) for 15 min. Subsequently, the slides were washed twice with aqua bidest, then dried, cleared in xylene and covered with Corbit-Balsam (I. Hecht, Kiel-Hasse, Germany).
2000 polychromatic erythrocytes (PCE) per animal (1000 per slide) were evaluated at 1000-fold magnification under immersion oil for the presence/absence of large and small micronuclei as well as the proportion of PCE among the total erythrocytes. Statistical significance of differences between treated versus untreated groups was evaluated by the one-sided Wilcoxon test (using the program MUKERN). The result is regarded as positive when the following criteria are fulfilled: 1.
2000 PCEs were analyzed for micronuclei per animal.

rat liver cells [2] = assay: Comet assay, conventional (no FPG), liver; details: for Increase of the TI vs vehicle control: p ≤ 0.01; for Hedgehogs/100 cells (mean ± SD) / TI (%) (mean ± SD) / TI (%), mean of medians from 2 slides: liver, 200 mg/kg bw oral, once; for TI (%), mean of medians from 2 slides: individual animals
Method: Animals were anesthetized by 3.5% isoflurane (approximately 3 min, evaporator Dräger Vapor 19.3) and then killed by cervical dislocation. The liver was removed and its left lateral lobe used for the Comet assay. The remainder of the liver was washed in saline and then in two aliquots shock frozen in liquid nitrogen and stored at − 80 °C for later examinations. Subsequently the lung was removed from the dead animal. Its left lobe was used for the Comet assay and the remainder treated as described above for the liver. Thereafter the femora were removed for the preparation of the bone marrow.
The Comet assay was performed under alkaline conditions according to the principles described by Singh et al. ([1988]) and Tice et al. ([2000]).
Liver and lung cells were obtained essentially as described by Hartmann et al. ([2004]) and by the Japanese Center for the Validation of Alternative Methods (JaCVAM [2009]). Single cells were obtained within 1 h after killing of the animals in order to minimize DNA damage during the preparation.
The organ parts (see above) were washed in mincing buffer (50 mM EDTA in HBSS [without Ca^2+ and Mg^2+] pH 7.5: DMSO 9:1 (v/v), the latter added shortly before use, stored at 4 °C), cut into 1 to 2-mm pieces in ice-cold mincing buffer and transferred to a cell sieve with 70-µm pores. The viability of the cell suspension was evaluated by the Trypan Blue Assay (Strober [2001]).
100 µL of the obtained cell suspension was mixed at 37 °C with 900 µL Low Melting Agarose (LMA) (0.7% agarose in phosphate-buffered saline [PBS] [Biochrom, Berlin, Germany] without Ca^2+ and Mg^2+). 100 µL of this mixture was transferred to a slide, which had been coated with Normal Melting Agarose (NMA) (0.6% agarose in PBS without Ca^2+ and Mg^2+). The slides were protected with a cover slip and the agarose was hardened at approximately 4 °C. The cover slips were then removed and the slides put over night at 4 °C into lysis buffer (2.5 M NaCl, 125 mM NaOH, 127 mM EDTA, 10 mM Tris/NaOH, pH 10; 1% Triton X-100 and 10% DMSO (v/v), the latter two added before use) in order to lyse the cell membrane, nuclear membrane and remove the histone.
The then following procedures were performed in a shaded room to minimize UV-mediated DNA damage during the procedures.
Remaining lysis buffer or FPG buffer was removed by immersing/washing the slides in PBS (without Ca^2+ and Mg^2+).
The slides were then placed into the electrophoresis chamber, which was cooled and protected from light. Slides were covered with electrophoresis buffer (0.3 M NaOH, 1 mM EDTA, pH > 13) carefully avoiding air bubbles. The DNA was allowed to unwind (20 min). Thereafter the electrophoresis was started (25 V, 300 mA, […], 30 min). The slides were then washed (2 times 5 min) in neutralization buffer (0.4 M Tris/HCl, pH 7.5), dehydrated and fixed in 100% ethanol (1 min), dried at room temperature overnight and stored at room temperature protected from dust.
Quantitative evaluation of the Comet assays was performed by fluorescence microscopy after DNA staining with ethidium bromide.

rat liver cells [3] = assay: Trypan Blue viability of the single cell suspension, liver; format: in vivo; details: Wistar, rat, in vivo, po, 200 mg/kg, 24 h
[4] = as above; format: in vivo, rat; details: Wistar, rat, in vivo, po, 200 mg/kg

With `CCOS(C)(=O)=O` [EMS, ethyl methanesulfonate, reference compound] the “MN/ 1000 PCE Mean ± SD” value ([1]; female) was 11.8 ± 12.3 MN/ 1000 PCE, the “MN/ 1000 PCE Range” value ([1]; female) was 9.0–14.5 MN/ 1000 PCE and the “PCE/1000 Erythrozyten Mean ± SD” value ([1]; female) was 563 ± 29 PCE/1000 Erythrozyten. The “PCE/NCE quotient (%)” value ([1]; female) was 89%, the “MN/ 1000 PCE Mean ± SD” value ([1]; male) was 14.5 ± 6.0 MN/ 1000 PCE and the “MN/ 1000 PCE Range” value ([1]; male) was 3.0–20.0 MN/ 1000 PCE. The “PCE/1000 Erythrozyten Mean ± SD” value ([1]; male) was 616 ± 50 PCE/1000 Erythrozyten, the “PCE/NCE quotient (%)” value ([1]; male) was 101% and the “Micronuclei in PCE” value ([1]; 200 mg/kg body weight, independent of gender) was 13.2 ± 4.6 ‰. For the same compound, the “Micronuclei in PCE” value ([1]; female, Wistar Crl:WI (Han), rat, in vivo, 24 h) was 11.8 ± 2.3 ‰, the “Micronuclei in PCE” value ([1]; male, Wistar Crl:WI (Han), rat, in vivo, 24 h) was 14.5 ± 6.0 ‰ and the “Tail intensity, liver, positive controls of the present study” value (rat liver cells [2]; 200 mg/kg body weight) was 17–19%. The “Increase of the TI vs vehicle control” value (rat liver cells [2]; liver cells, female, no FPG, 200 mg/kg) was 28 fold, the “Increase of the TI vs vehicle control” value (rat liver cells [2]; liver cells, male, no FPG, 200 mg/kg) was 27 fold and the “Hedgehogs per 100 cells, averaged for both genders” value (rat liver cells [2]; liver cells, no FPG, 200 mg/kg) was 7.5 per 100 cells. The “Hedgehogs/100 cells (mean ± SD)” value (rat liver cells [2]; female, no FPG) was 7 ± 4 /100 cells, the “TI (%) (mean ± SD)” value (rat liver cells [2]; female, no FPG) was 16.3 ± 4.49% and the “TI (%), mean of medians from 2 slides” value (rat liver cells [2]; female, no FPG, 200 mg/kg) was 9.1% and 13.6% and 17.5% and 22.4% and 17.8% and 17.3%. For the same compound, the “Hedgehogs/100 cells (mean ± SD)” value (rat liver cells [2]; male, no FPG) was 8 ± 2 /100 cells, the “TI (%) (mean ± SD)” value (rat liver cells [2]; male, no FPG) was 18.6 ± 5.97% and the “TI (%), mean of medians from 2 slides” value (rat liver cells [2]; male, no FPG, 200 mg/kg) was 18.9% and 17.5% and 29.0% and 10.6% and 19.3% and 16.4%. For the same compound, the “Individual viability (%)” value (rat liver cells [3]; female) was 97%, the “Individual viability (%)” value (rat liver cells [3]; male) was 94% and the viability at 24 h ([4]; female, Individual viability (%)) was 99%. It also gave a viability at 24 h ([4]; female, Viability (%) (mean ± SD)) of 96 ± 2%, a viability at 24 h ([4]; male, Individual viability (%)) of 91% and a viability at 24 h ([4]; male, Viability (%) (mean ± SD)) of 95 ± 3%.
